Test results published in patent US11938103B2, “Potentiation of helminth treatment” (Elanco Tiergesundheit AG, priority 2018, dated 2024).

Key:
liver flukes = conditions: cited from earlier work
[1] = tested on: Fasciola hepatica (immature stage); assay: Efficacy against immature stage F. hepatica infection in cattle (Example 4); format: in vivo; conditions: single oral dose day 49, livers day 91 or 92, diamphenethide 60 mg/kg, clorsulon 5 mg/kg, combination 60 and 5 mg/kg; for % Efficacy using Arithmetic mean / % Efficacy using Geometric Mean: vs untreated control
Protocol: (§1) Doses were administered orally from suitably sized disposable syringes.
(§2) The fluke counts and body weights were log-transformed (after adding a constant of 1 to the fluke counts only) and the distribution of the transformed data checked to see if they satisfied the assumption of normal distribution.
(§3) Arithmetic means (Amean), geometric means (Gmean), median and ranges were summarized for fluke counts, fluke measurements and bodyweight. A constant of one was applied for calculation of geometric means of fluke counts.
(§4) The percentage efficacy for each treated group was calculated as follows: % Efficacy=100×(FCC−FCT)/FCC where FCC is the arithmetic mean fluke count of the control group and FCT is the arithmetic mean fluke count of the treated group. The formula was also applied using mean geometric fluke counts; these were calculated using log transformed data with 1 added as a constant to each fluke count and then subtracted following transformation.
(§5) Note that expected synergy is defined as: 1−Efficacy(expected without synergy)=(1−EfficacyD)×(1−EfficacyC).
This study was to assess the efficacy of diamphenethide (60 mg/kg) given concurrently with clorsulon (5 mg/kg), diamphenethide alone (60 mg/kg), and clorsulon alone (5 mg/kg) against F. hepatica in cattle with treatment on day 49. This was a controlled, blinded, randomized study.
On day 0, the calves were experimentally infected with a single isolate of approximately 382 Sunny Corner (Fashep-66) isolate F. hepatica metacercariae. The required number of metacerceriae were made up in 2% carboxymethyl cellulose. Syringes were checked post-infection for retained metacerceriae. The infection was administered orally and each infective dose was followed by water administered orally. The cattle were randomized into treatment groups on the basis of day 48 body weight and allocated to groups as denoted in Table 4.1.
Body weight was determined one day prior to treatment. All treatments were measured by volume and rounded to the nearest 0.1 mL. On day 49, and before feeding, the individual animals were treated once only with the treatment in Table 4.1. […] Untreated control animals were also fed at this time.
(§6) The liver with gall bladder and bile ducts intact were recovered from each animal on day 91 or 92 and processed for F. hepatica counts. The assessment of efficacy was based on the number of live fluke removed from the liver.

[2] = tested on: Fasciola hepatica (early immature stage); assay: Efficacy against early immature stage F. hepatica infection in sheep (Example 3); format: in vivo; conditions: single oral dose day 14, livers day 91, diamphenethide 20 mg/kg, clorsulon 10 mg/kg, combination 20 and 10 mg/kg; for % Efficacy using Arithmetic mean / % Efficacy using Geometric Mean: vs untreated control
Protocol: as §1, §2, §3, §4, §5
This study was to assess the efficacy of diamphenethide (20 mg/kg) given concurrently with clorsulon (10 mg/kg), diamphenethide alone (20 mg/kg), and clorsulon alone (10 mg/kg) against F. hepatica in sheep with treatment on day 14. This was a controlled, blinded, randomized study using sheep.
On day 0, the sheep were experimentally infected with a target of 200 “Sunny Corner” (laboratory strain reference Fashep-66) F. hepatica metacercariae. The required number of metacercariae were prepared for infection in a water and 2% carboxymethylcellulose solution. Each infective dose was followed by water administered orally.
The sheep were randomized into treatment groups on the basis of day 13 body weight and allocated to groups as denoted in Table 3.1. Animals were treated on day 14 with a single dose as noted in Table 3.1.
Body weight was determined one day prior to treatments, which were measured by volume and rounded to the nearest 0.1 mL. On day 14, and before feeding, the individual animals were treated once only with the Treatment in Table 3.1. […] Untreated control animals were also fed at this time.
The liver with gall bladder and common bile duct intact were recovered on day 91 from each animal and processed for F. hepatica counts. The assessment of efficacy was based on the number of live fluke removed from the liver.
An ANOVA model was used to compare fluke counts between treatment groups. The model was applied to the log-transformed counts. There was one fixed effect, treatment group.

[3] = tested on: Fasciola hepatica (immature stage); assay: Efficacy against immature stage F. hepatica infection in sheep (Example 2); format: in vivo; conditions: single oral dose day 42, livers day 91, diamphenethide 40 mg/kg, clorsulon 3.5 mg/kg, combination 40 and 3.5 mg/kg; for % Efficacy using Arithmetic mean / % Efficacy using Geometric Mean: vs untreated control
Protocol: In the following examples, all animals were confirmed free of infection with F. hepatica and found clinically healthy by a veterinarian prior to enrollment in the study. Doses were administered orally from suitably sized disposable syringes. […] Differences between treatment groups were analyzed by analysis of variance methods (ANOVA), as the assumptions of normal distribution were satisfied for log-transformed fluke count and log-transformed bodyweight, as well as for (untransformed) fluke measurements. Arithmetic […]), geometric […]), median and ranges were summarized for fluke counts, fluke measurements and bodyweight. A constant of one was applied for calculation of geometric means of fluke counts. […] On day 0, the sheep were experimentally infected with a target of 200 “Sunny Corner” (laboratory strain reference […]. hepatica […]. The required number of […] prepared for infection in a water and 4% carboxymethylcellulose solution. Each infective dose was followed by water administered orally. Syringes were subsequently checked post-infection for retained […] was determined that the sheep were administered between 93.5% and 100% (98.3% on average) of the target infective dose. The sheep were randomized into treatment groups on the basis of day 41 body weight and allocated to groups as denoted in Table 2.1. Body weight was determined one day prior to treatments, which were measured by volume and rounded to the nearest 0.1 mL. On day 42, and before feeding, the individual animals were treated once only with the Treatment in Table 2.1. Once the animals had been treated they were returned to their pens and fed within one hour. Untreated control animals were also fed at this time. The liver with gall bladder and common bile duct intact were recovered on day 91 from each animal and processed for F. hepatica counts. The assessment of efficacy was based on the number of live fluke removed from the liver. An ANOVA model was used to compare fluke counts between treatment groups. The model was applied to the log-transformed counts. There was one fixed effect, treatment group.

[4] = tested on: Fasciola hepatica (early immature stage); assay: Efficacy against early immature stage F. hepatica infection in cattle (Example 5); format: in vivo; conditions: single oral dose day 21, livers day 91 or 92, diamphenethide 40 mg/kg, clorsulon 7 mg/kg, combination 40 and 7 mg/kg; for % Efficacy using Arithmetic mean / % Efficacy using Geometric Mean: vs untreated control
Protocol: as §1, §2, §3, §4, §5
This study was to assess the efficacy of diamphenethide (40 mg/kg) given concurrently with clorsulon (7 mg/kg), diamphenethide alone (40 mg/kg), and clorsulon alone (7 mg/kg) against F. hepatica in cattle with treatment on day 21. This was a controlled, blinded, randomized study.
On day 0, the calves were experimentally infected with a single isolate of approximately 350 Sunny Corner (Fashep-66) isolate F. hepatica metacercariae. The required number of metacerceriae were made up in 2% carboxymethyl cellulose. Syringes were checked post-infection for retained metacerceriae. The infection was administered orally and each infective dose was followed by water administered orally. The cattle were randomized into treatment groups on the basis of day 20 body weight and allocated to groups as denoted in Table 5.1.
Body weight was determined one day prior to treatment. All treatments were measured by volume and rounded to the nearest 0.1 mL. On day 21, and before feeding, the individual animals were treated once only with the treatment in Table […]. […] Untreated control animals were also fed at this time.
as §6

[5] = deacylation to DAMD; cited from earlier work
Fasciola hepatica = conditions: cited from earlier work

CC(=O)Nc1ccc(OCCOCCOc2ccc(NC(C)=O)cc2)cc1 [Diamphenethide, N-[4-[2-[2-(4-acetamidophenoxy)ethoxy]ethoxy]phenyl]acetamide]
Effectiveness against early immature flukes (liver flukes; early immature flukes up to 6 weeks of age): highly effective | Activity against flukes as they develop to maturity (liver flukes; flukes developing to maturity): progressively lower activity | Fluke Count, Arithmetic mean [1]: 73.8 | Fluke Count, Geometric Mean [1]: 61.8 | % Efficacy using Arithmetic mean [1]: 12.1% | % Efficacy using Geometric Mean [1]: 26.0% | Fluke Count, Arithmetic mean [2]: 89.0 | Fluke Count, Geometric Mean [2]: 87.5 | % Efficacy using Arithmetic mean [2]: 40.0% | % Efficacy using Geometric Mean [2]: 36.3% | Fluke Count, Arithmetic mean [3]: 57.6 | Fluke Count, Geometric Mean [3]: 50.9 | % Efficacy using Arithmetic mean [3]: 36.1% | % Efficacy using Geometric Mean [3]: 41.5% | Fluke Count, Arithmetic mean [4]: 54.2 | Fluke Count, Geometric Mean [4]: 53.1 | % Efficacy using Arithmetic mean [4]: 30.7% | % Efficacy using Geometric Mean [4]: 27.5% | Metabolism [5]: rapidly metabolized by deacylation

Cc1cc(C(C#N)c2ccc(Cl)cc2)c(Cl)cc1NC(=O)c1cc(I)cc(I)c1O (stereo not drawn) [closantel]
Side resistance in rafoxanide-resistant F. hepatica isolates (Fasciola hepatica; F. hepatica isolates, New South Wales): side resistance to closantel was evident

O=C(Nc1ccc(Oc2ccc(Cl)cc2)c(Cl)c1)c1cc(I)cc(I)c1O [rafoxanide]
Isolates showing resistance at recommended doses (Fasciola hepatica; ten of seventeen F. hepatica isolates from different geographical regions): 58.8%

Nc1cc(C(Cl)=C(Cl)Cl)c(S(N)(=O)=O)cc1S(N)(=O)=O [Clorsulon, 4-amino-6-(1,2,2-trichloroethenyl)benzene-1,3-disulfonamide]
Effectiveness by host species (liver flukes; cattle versus sheep): more effective in cattle than in sheep | Effectiveness against mature flukes (liver flukes; mature flukes): effective against mature flukes | Fluke Count, Arithmetic mean [1]: 72.6 | Fluke Count, Geometric Mean [1]: 70.7 | % Efficacy using Arithmetic mean [1]: 13.6% | % Efficacy using Geometric Mean [1]: 15.3% | Fluke Count, Arithmetic mean [2]: 99.8 | Fluke Count, Geometric Mean [2]: 90.6 | % Efficacy using Arithmetic mean [2]: 28.2% | % Efficacy using Geometric Mean [2]: 34.0% | Fluke Count, Arithmetic mean [3]: 81.8 | Fluke Count, Geometric Mean [3]: 79.7 | % Efficacy using Arithmetic mean [3]: 9.3% | % Efficacy using Geometric Mean [3]: 8.4% | Fluke Count, Arithmetic mean [4]: 45.2 | Fluke Count, Geometric Mean [4]: 42.4 | % Efficacy using Arithmetic mean [4]: 42.2% | % Efficacy using Geometric Mean [4]: 42.1%
